From paper PMC8447191, “Peptide Amphiphilic-Based Supramolecular Structures with Anti-HIV-1 Activity” (Bioconjugate Chemistry, 2021)
pIC50: −log10 of the molar value. Where two headings read alike, the source gives them in different places. *1 amine or outer side, *2 acyl side, *3 side chain or, on linkers, in order; H or OH if unused. Where a SMILES comes first, the peptide text is derived from it. Side-chain parts run from the residue outwards. The star is where a group is joined. X1 = CC(C)CCC[C@@H](C)[C@H]1CC[C@H]2[C@@H]3CC=C4C[C@@H](OC(=O)CSC[C@H](N)C(=O)*)CC[C@]4(C)[C@H]3CC[C@]12C; PEG28 = NCCOCCOCCOCCOCCOCCOCCOCCOCCOCCOCCOCCOCCOCCOCCOCCOCCOCCOCCOCCOCCOCCOCCOCCOCCOCCOCCOCCOCCC(=O)O; N(octadecyl)2 = CCCCCCCCCCCCCCCCCCN(CCCCCCCCCCCCCCCCCC)*; NHOctadecyl = CCCCCCCCCCCCCCCCCCN*; Suc = O=C(CCC(=O)[*:2])[*:1]

Assays:
HIV-1BaL [1] = type: cell-based; settings: for pIC50 / IC95: HIV-1BaL, TZM-bl cells, peptide 10-0.00061 μM for 1 h at 37 °C before virus, luciferase after 48 h, sigmoid fit, mean of triplicates; for SI (CC50/IC50): ratio of CC50 (MTT assay) to IC50 (HIV-1BaL, TZM-bl cells)
Experimental: HIV-1BaL[52] was provided by the NIH AIDS Research & Reference Reagent Program (http://www.aidsreagent.org/). Viral stock was prepared by passage through activated PBMCs[53] for 11 days.
Luciferase-reporter HeLa cells stably transfected to express CD4 and CCR5; TZM-bl cells[54]−[56] were grown in Dulbecco’s Minimal Essential Medium (DMEM) (Sigma-Aldrich, Inc., St. Louis, MO) containing 10% fetal calf serum (FCS), 2 mM L-glutamine, and antibiotics (100 U of penicillin/mL, 100 μg of streptomycin/mL) at 37 °C in an atmosphere containing 5% CO2.
(§1) All inhibition assays in cellular and tissue explants models were performed using a standardized amount of virus culture supernatant normalized for infectivity. TZM-bl cells were incubated with serial dilutions of peptides (from 10 μM to 0.00061 μM) for 1 h at 37 °C, prior to challenge with HIV-1BaL. Luciferase expression (r.l.u. values) was determined after 48 h. Alternatively, tissue explants were incubated with serial dilutions of peptide (from 100 μM to 0.1 μM) for 1 h before virus (10^4 TCID50/mL) was added for 2 h. Explants were then washed four times with PBS to remove unbound virus and drug. Colorectal explants were then transferred onto gelfoam rafts (Welbeck Pharmaceuticals, UK) and cultured for 15 days as described previously[57] […]. Explants were cultured for up to 15 days in the absence of peptide. Approximately 50% of the supernatants were harvested every 2–3 days and explants were re-fed with fresh media. The extent of viral replication in tissue explants was determined by measuring the p24 antigen concentration in supernatants (INNOTEST HIV antigen mAb; Fujirebio Europe, Belgium). The extent of inhibition by each peptide was calculated. The percentage of inhibition was normalized relative to the r.l.u, for TZM-bl cells, or p24, for tissue explants, values obtained for cells or explants cultured in the absence of virus (100% inhibition) and for cells or explants infected with virus in the absence of peptide (0% inhibition). Data are the mean (±SEM) of triplicates. When a dose–response curve was obtained, IC50 and, if possible, IC95 values were calculated from sigmoid curve fits (GraphPad Prism). For all curves, R^2 is >0.7.

[2] = Visual stability and aspect of POPC vesicles mixed with PAs (SAXS samples); type: physicochemical; settings: POPC 20 mM + 2 mM PA, 0.5% DMSO
Experimental: In Figure 5A,B, we show the spectra corresponding to POPC 20 mM and POPC 20 mM + 2 mM PAs (all of them in the presence of 0.5% DMSO). The band centered at 1.2 nm^–1 and the secondary band at 3.2 nm^–1 were typical of unilamellar vesicles.[35]
The incorporation of PAs had some distinct consequences. The first and more obvious one is the distinction between stable and unstable systems.

MTT cytotoxicity assay = type: cell-based; settings: human, HeLa-env cells, PAs coassembled with 5% FAM, 40-2.3 μM, absorbance 560 nm
Experimental: The metabolic activity of the cell line, related to the cytotoxic effect of the compounds to be tested, is measured after 24 h using the MTT assay. This assay is based on the metabolic reduction of 3-(4,5-dimethylthiazol-2-yl)-2,5-diphenyl-2H-tetrazolium bromide (MTT), carried out by the mitochondrial enzyme succinate dehydrogenase, in a colored compound of blue color (formazan) that can be monitored by absorbance spectroscopy at 560 nm, allowing determination of the mitochondrial functionality of the treated cells.
The HeLa-env cell line is seeded in 96-well plates with an initial density of 15,000 cells per well in 100 μL of culture medium (Dulbecco’s modified Eagle’s medium, DMEM, with 10% FBS added) and incubated for 24 h at 37 °C and 5% CO2 to allow their adhesion. The cell monolayers are washed with PBS, and then 100 μL of PAs formulations (peptide amphiphiles coassembled with 5% FAM) are added in a concentration range from 40 μM to 2.3 μM. The plates are kept in incubation for further 24 h.
At the end of the incubation time, the cells are incubated for 3 h with 1 mg/mL of MTT, dissolved in culture medium without FBS, to allow the formation of formazan crystals. Subsequently, 100 μL of DMSO are added to wells, stirring the plates for 30 min at room temperature to facilitate the complete dissolution of the crystals. Finally, the absorbance at 560 nm is measured in a microplate reader.
The results are expressed as relative percentage between absorbance of PA formulations against absorbance of its DMSO controls and CC50 and CC25 values are taken from dose–response curves.

[3] = not given; remark: listed apart in the source
HIV-1BaL [4] = type: cell-based; settings: colorectal tissue explants, peptide 100-0.1 μM for 1 h before and 2 h during virus (pulse, 3 h), p24 ELISA at day 15, mean (SEM) of triplicates
Description: Human tissue explants: Surgically resected specimens of colorectal tissues were collected from HIV negative patients at St. Mary’s Hospital, Imperial College Healthcare NHS Trust, London, UK. All tissues were collected after receiving signed informed consent from all patients through the Imperial College Healthcare Tissue Bank approved by Research Ethics Committee Wales (IRAS 17/WA/0161). On arrival in the laboratory, resected tissue was cut into 2–3 mm^3 explants comprising both epithelial and muscularis mucosae as described previously.[57] Tissue explants were maintained with DMEM containing 10% fetal calf serum, 2 mM L-glutamine, and antibiotics (100 U of penicillin/mL, 100 μg of streptomycin/mL, 80 μg of gentamicin/mL) at 37 °C in an atmosphere containing 5% CO2.
as §1

[5] = not given; remark: listed apart in the source

| SMILES | pIC50 (HIV-1BaL [1]) | IC95 (HIV-1BaL [1]) | Trp fluorescence emission maximum (λmax) | stability / aspect of the sample [2] | CC50 at 24 h (MTT cytotoxicity assay) | lamellar characteristic distance [3] | SI (CC50/IC50) (HIV-1BaL [1]) | pIC50 (HIV-1BaL [4]) | IC95 (HIV-1BaL [4]) | lamellar liquid crystal periodicity [5] |
| --- | --- | --- | --- | --- | --- | --- | --- | --- | --- | --- |
| CC[C@H](C)[C@H](NC(=O)[C@@H](NC(=O)CNC(=O)[C@H](CCCNC(=N)N)NC(=O)[C@H](Cc1c[nH]c2ccccc12)NC(=O)[C@H](Cc1ccccc1)NC(=O)[C@H](CC(=O)O)NC(=O)[C@H](Cc1ccccc1)NC(=O)[C@@H]1CCCN1C(=O)[C@@H](NC(=O)[C@H](CCCCN)NC(=O)[C@H](Cc1c[nH]c2ccccc12)NC(=O)[C@H](CC(C)C)NC(=O)[C@H](Cc1ccc(O)cc1)NC(=O)[C@H](CCC(=O)O)NC(=O)[C@H](CC(C)C)NC(=O)[C@@H](NC(=O)[C@@H](N)Cc1c[nH]c2ccccc12)[C@@H](C)CC)C(C)C)C(C)C)C(N)=O [E1P47] (H-WILEYLWKVPFDFWRGVI-NH2) | 5.14 | 28.21 µM | 356 nm |  |  |  |  |  |  |  |
| CCCCCCCCCCCCCCCCCCN(CCCCCCCCCCCCCCCCCC)C(=O)CCC(=O)NCCOCCOCCOCCOCCOCCOCCOCCOCCOCCOCCOCCOCCOCCOCCOCCOCCOCCOCCOCCOCCOCCOCCOCCOCCOCCOCCOCCOCCC(=O)NCCCC[C@H](NC(=O)[C@@H](NC(=O)[C@@H](NC(=O)CNC(=O)[C@H](CCCNC(=N)N)NC(=O)[C@H](Cc1c[nH]c2ccccc12)NC(=O)[C@H](Cc1ccccc1)NC(=O)[C@H](CC(=O)O)NC(=O)[C@H](Cc1ccccc1)NC(=O)[C@@H]1CCCN1C(=O)[C@@H](NC(=O)[C@H](CCCCN)NC(=O)[C@H](Cc1c[nH]c2ccccc12)NC(=O)[C@H](CC(C)C)NC(=O)[C@H](Cc1ccc(O)cc1)NC(=O)[C@H](CCC(=O)O)NC(=O)[C@H](CC(C)C)NC(=O)[C@@H](NC(=O)[C@@H](N)Cc1c[nH]c2ccccc12)[C@@H](C)CC)C(C)C)C(C)C)[C@@H](C)CC)C(N)=O [C-PAdialkyl] (H-WILEYLWKVPFDFWRGVIK([PEG28-Suc-N(octadecyl)2])-NH2) |  |  |  | bluish | 25 µM | 5.7 nm |  |  |  |  |
| CC[C@H](C)[C@H](NC(=O)[C@@H](NC(=O)CNC(=O)[C@H](CCCNC(=N)N)NC(=O)[C@H](Cc1c[nH]c2ccccc12)NC(=O)[C@H](Cc1ccccc1)NC(=O)[C@H](CC(=O)O)NC(=O)[C@H](Cc1ccccc1)NC(=O)[C@@H]1CCCN1C(=O)[C@@H](NC(=O)[C@H](CCCCN)NC(=O)[C@H](Cc1c[nH]c2ccccc12)NC(=O)[C@H](CC(C)C)NC(=O)[C@H](Cc1ccc(O)cc1)NC(=O)[C@H](CCC(=O)O)NC(=O)[C@H](CC(C)C)NC(=O)[C@@H](NC(=O)[C@@H](N)Cc1c[nH]c2ccccc12)[C@@H](C)CC)C(C)C)C(C)C)C(=O)N[C@@H](CCCCNC(=O)CCOCCOCCOCCOCCOCCOCCOCCOCCOCCOCCOCCOCCOCCOCCOCCOCCOCCOCCOCCOCCOCCOCCOCCOCCOCCOCCOCCOCCNC(=O)[C@@H](N)CSCC(=O)O[C@H]1CC[C@@]2(C)C(=CC[C@H]3[C@@H]4CC[C@H]([C@H](C)CCCC(C)C)[C@@]4(C)CC[C@@H]32)C1)C(N)=O [C-PAchol] (H-WILEYLWKVPFDFWRGVIK([PEG28-X1])-NH2) | 5.77 |  |  | bluish | > 40 µM | 4.9 nm |  |  |  |  |
| CCCCCCCCCCCCCCCCCCNC(=O)CCC(=O)NCCOCCOCCOCCOCCOCCOCCOCCOCCOCCOCCOCCOCCOCCOCCOCCOCCOCCOCCOCCOCCOCCOCCOCCOCCOCCOCCOCCOCCC(=O)NCCCC[C@H](NC(=O)[C@@H](NC(=O)[C@@H](NC(=O)CNC(=O)[C@H](CCCNC(=N)N)NC(=O)[C@H](Cc1c[nH]c2ccccc12)NC(=O)[C@H](Cc1ccccc1)NC(=O)[C@H](CC(=O)O)NC(=O)[C@H](Cc1ccccc1)NC(=O)[C@@H]1CCCN1C(=O)[C@@H](NC(=O)[C@H](CCCCN)NC(=O)[C@H](Cc1c[nH]c2ccccc12)NC(=O)[C@H](CC(C)C)NC(=O)[C@H](Cc1ccc(O)cc1)NC(=O)[C@H](CCC(=O)O)NC(=O)[C@H](CC(C)C)NC(=O)[C@@H](NC(=O)[C@@H](N)Cc1c[nH]c2ccccc12)[C@@H](C)CC)C(C)C)C(C)C)[C@@H](C)CC)C(N)=O [C-PAmonoalkyl] (H-WILEYLWKVPFDFWRGVIK([PEG28-Suc-NHOctadecyl])-NH2) | 7.10 | 5.60 µM |  | bluish | 20 µM | 4.7 nm | 250 | 5.46 | 24.29 (3.61) μM |  |
| CC[C@H](C)[C@H](NC(=O)[C@@H](NC(=O)CNC(=O)[C@H](CCCNC(=N)N)NC(=O)[C@H](Cc1c[nH]c2ccccc12)NC(=O)[C@H](Cc1ccccc1)NC(=O)[C@H](CC(=O)O)NC(=O)[C@H](Cc1ccccc1)NC(=O)[C@@H]1CCCN1C(=O)[C@@H](NC(=O)[C@H](CCCCNC(=O)CCOCCOCCOCCOCCOCCOCCOCCOCCOCCOCCOCCOCCOCCOCCOCCOCCOCCOCCOCCOCCOCCOCCOCCOCCOCCOCCOCCOCCNC(=O)[C@@H](N)CSCC(=O)O[C@H]1CC[C@@]2(C)C(=CC[C@H]3[C@@H]4CC[C@H]([C@H](C)CCCC(C)C)[C@@]4(C)CC[C@@H]32)C1)NC(=O)[C@H](Cc1c[nH]c2ccccc12)NC(=O)[C@H](CC(C)C)NC(=O)[C@H](Cc1ccc(O)cc1)NC(=O)[C@H](CCC(=O)O)NC(=O)[C@H](CC(C)C)NC(=O)[C@@H](NC(=O)[C@@H](N)Cc1c[nH]c2ccccc12)[C@@H](C)CC)C(C)C)C(C)C)C(N)=O [K-PAchol] (H-WILEYLWK([PEG28-X1])VPFDFWRGVI-NH2) | 7.05 |  |  | bluish | > 40 µM |  |  |  |  | 4.8 nm |
| CCCCCCCCCCCCCCCCCCNC(=O)CCC(=O)NCCOCCOCCOCCOCCOCCOCCOCCOCCOCCOCCOCCOCCOCCOCCOCCOCCOCCOCCOCCOCCOCCOCCOCCOCCOCCOCCOCCOCCC(=O)N[C@@H](Cc1c[nH]c2ccccc12)C(=O)N[C@H](C(=O)N[C@@H](CC(C)C)C(=O)N[C@@H](CCC(=O)O)C(=O)N[C@@H](Cc1ccc(O)cc1)C(=O)N[C@@H](CC(C)C)C(=O)N[C@@H](Cc1c[nH]c2ccccc12)C(=O)N[C@@H](CCCCN)C(=O)N[C@H](C(=O)N1CCC[C@H]1C(=O)N[C@@H](Cc1ccccc1)C(=O)N[C@@H](CC(=O)O)C(=O)N[C@@H](Cc1ccccc1)C(=O)N[C@@H](Cc1c[nH]c2ccccc12)C(=O)N[C@@H](CCCNC(=N)N)C(=O)NCC(=O)N[C@H](C(=O)N[C@H](C(N)=O)[C@@H](C)CC)C(C)C)C(C)C)[C@@H](C)CC [N-PAmonoalkyl] ({NHOctadecyl-Suc-PEG28}-WILEYLWKVPFDFWRGVI-NH2) | 6.70 | 5.87 µM |  | precipitated rather fast and made compact flocks | 17 µM |  | 85 | 6.55 | 2.53 (1.14) μM |  |
